From patent publication US9795678B2, “Fast-acting insulin composition comprising a substituted anionic compound and a polyanionic compound” (ADOCIA, priority 2014, dated 2017)

How the values were obtained:
[1] = target: hexameric form R6 of lispro insulin (Homo sapiens, UniProt P01308, K53P/P52K); test: Circular dichroism, CD signal of lispro insulin at 240 nm; conditions: lispro insulin 100 IU/mL; substituted anionic compound 7.3 mg/mL; citrate 9.3 mM; EDTA 300 μM
[2] = target: T1, hexameric structure of human insulin (Homo sapiens, UniProt P01308); test: Circular dichroism, CD signal of human insulin at 276 nm; format: physicochemical; conditions: rhINS 100 IU/ml; Compound 7.3 mg/mL
T1 construct: the insulin is a recombinant human insulin as described in the European pharmacopea and the American pharmacopea
Experimental: The CD signal at 276 nm is characteristic of the hexameric form of insulin (hexamer signal at about −300°, dimer signal between −200° and −250° and monomer signal below −200°). Loss of the CD signal at 276 nm is thus characteristic of a destabilization of the hexamer into dimers or monomers.

[3] = cited from earlier work

T1 sequence (P01308 25-54 limits assumed): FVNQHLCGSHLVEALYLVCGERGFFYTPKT
T1 sequence (P01308 90-110 limits assumed): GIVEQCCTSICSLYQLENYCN
Chain of hexameric form R6 of lispro insulin (P01308 25-54 P52K/K53P limits assumed): as the sequence (P01308 25-54 limits assumed) above, with P28K, K29P counted along it

Impact on the R6 form of lispro insulin (CD signal at 240 nm) [1] | Impact on the hexameric structure of human insulin (CD signal at 276 nm) [2] | Compound | delay of action when compared with a rapid insulin analog (dissociation of hexamers into dimers and monomers) ([3]; Brange J., et al., 1999) | time after which a hypoglycemiant effect occurs ([3]; injected subcutaneously, diabetic patients) [min]
completely destructures | very pronounced impact | O=C(O)CN(CCN(CC(=O)O)CC(=O)O)CC(=O)O [EDTA] | – | –
no impact | no impact | O=C(O)CC(O)(CC(=O)O)C(=O)O [citrate] | – | –
– | – | human insulin: human insulin produced by genetic engineering | up to 20 minutes | 60

Compound | Impact on the R6 form of lispro insulin (CD signal at 240 nm) [1] | Impact on the hexameric structure of human insulin (CD signal at 276 nm) [2] | delay of action when compared with a rapid insulin analog (dissociation of hexamers into dimers and monomers) ([3]; Brange J., et al., 1999) | time after which a hypoglycemiant effect occurs ([3]; injected subcutaneously, diabetic patients) [min]
O=C(O)CCC(=O)N[C@@H](Cc1ccccc1)C(=O)O [Substituted anionic compound A1, N-(3-carboxy-1-oxopropyl-)-L-phenylalanine] | – | no impact | – | –
